# Test results reported in patent US10100313B2, “Use of Mcoln-1 modulators to regulate cell migration” (INSTITUT CURIE, priority 2014, dated 2018).
# “Also recorded” adds a separate entry of the source.
# Columns and labels:
# Type in all cases: cell-based, mouse
# dendritic cells [1] = assay: Mapping assay of polymerized actin in migrating Lifeact dendritic cells; details: immature DCs
# Description: (§1) Mouse bone-marrow cells were cultured during 10-12 days in medium supplemented with fetal calf serum and granulocyte-macrophage colony stimulating factor-containing supernatant obtained from transfected J558 cells, as previously described (Faure-Andre et al, 2008, Science, 322, 1705-10). For migration or mapping assays (see below), cells at day 10-12 were activated with 100 ng/ml of LPS (mature cells, LPS DCs), for 30 min, then rinsed 3 times with complete media and put into the channels. Counterpart immature cells for these experiments are treated in the same condition, but in absence of LPS.
# Lifeact dendritic cells (nucleofected or not) were incubated for 30 min in […] Hoechst-containing medium, washed 3 times and 10^5 cells per well were loaded and incubated from 4 h to overnight to allow their entry into micro-channels (section was 8×5 μm). After entry, cells were imaged at least for 16 hours on an epifluorescence video-microscope Nikon TiE microscope equipped with a cooled CCD camera (HQ2, Photometrics) with a 20× objective. Images were acquired every 3 minutes. […] Furthermore for each cell, spatial coordinates of the nuclei were measured and ratio between the mean actin density at the front and at the back of the nucleus was computed. […]
# dendritic cells [2] = assay: Flow cytometry analysis of CD86 levels (DC activation/maturation); details: immature and LPS-matured cells, 5 or 10 μM
# Description: The following reagents were used for imaging experiments: WGA AlexaFluor-647 and Hoechst (both from Life Technologies). Micro-channels were coated with Fibronectin (Sigma). Cell activation was performed with LPS (Sigma). For flow cytometry the following antibodies were used: anti-CD86 (GL1 clone, 553692) and a Rat IgG2a,κ isotype control (553930) from BD Biosciences.
# as §1
# Cells were resuspended in staining buffer (PBS BSA 2%) and stained 30 min at 4° C. with the indicated antibodies. Cells were then washed 3 times and resuspended in staining buffer. All Facs experiments were carried on an Accuri flow cytometer (BD Biosciences).
# dendritic cells [3] = assay: Migration assay in micro-channels
# Description: as §1
# Micro-channels were prepared as previously described (Faure-Andre et al, 2008, Science, 322, 1705-10; Heuze et al., 2011, Methods Mol Biol., 769, 415-434). They were incubated with 10 μg/ml fibronectin alone for 1 h and washed with PBS.
# For migration assay, cells were loaded in micro-channels (section 5×5 μm) and imaged at least for 16 hours on an epifluorescence video-microscope Nikon TiE microscope equipped with a cooled CCD camera (HQ2, Photometrics) with a 10× objective, one transmission phase image taken every 2 minutes. Kymograph extraction and instantaneous velocity analysis were performed using a homemade program as described previously (Faure-Andre et al, 2008, Science, 322, 1705-10).
substance,measurement,setting,value
MLSA1,actin polymerization at the cell center/cell rear,dendritic cells [1],enriched at their rear; also recorded: partially induces
same,fraction of time spent by DCs with actin at their front,dendritic cells [1]; compared to immature control DCs,decreased
same,CD86 levels (cell activation / LPS-induced maturation),dendritic cells [2],"No effect; also recorded: does not activate immature cells, nor prevent the LPS-induced maturation"
same,cell velocity,dendritic cells [3]; immature DCs,increases
same,persistence,dendritic cells [3]; immature DCs,increases
same,cell velocity,dendritic cells [3]; mature cells (LPS DCs),does not further increase
same,persistence,dendritic cells [3]; mature cells (LPS DCs),does not further increase
